We go through 26 compounds from patent US12617797B2, “Substituted pyrazolo [1,5-a]pyrimidines having multimodal activity against pain” (ESTEVE PHARMACEUTICALS, S.A., priority 2020, dated 2026).

Test [1] addresses Human α2δ-1 subunit of Cav2.2 calcium channel (Homo sapiens, UniProt P54289). Description: Human α2δ-1 subunit of Cav2.2 calcium channel assay ([3H]-gabapentin binding). The following applies: binding to the α2δ-1 subunit of voltage-gated calcium channels expressed as Ki; + also covers inhibition between 1% and 50%. In outline:
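Displacement of 15 nM [3H]-gabapentin from human α2δ-1-enriched membranes (Hepes-KOH 10 mM, pH 7.4; 27 °C, 60 min) read by filter binding and radioactivity counting. Values are single-point % inhibition (1 or 10 μM) or five-point Ki; 10 μM pregabalin sets NSB.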

Another test has as its target T1, Human σ1 receptor (Homo sapiens, UniProt Q99720).
T1 construct: expressed in transfected cells; host or cells: HEK-293
The experiment in a line: Human σ1 receptor radioligand assay ([3H](+)-pentazocine binding, transfected HEK-293 membranes). Conditions: binding to σ1 receptor expressed as Ki; + also covers inhibition between 1% and 50%; read-out: σ-1 binding. An outline of the steps:
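Ki was derived from five test concentrations, or % inhibition was measured at a single 1 or 10 μM dose, against 5 nM [3H](+)-pentazocine. Incubation was 120 min at 37° C in 50 mM Tris-HCl pH 8 with 7 μg HEK-293 membranes, and 10 μM haloperidol set non-specific binding. Bound radioactivity was counted after filtration.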

Molecules are shown by their SMILES.

T1 sequence (Q99720 whole entry): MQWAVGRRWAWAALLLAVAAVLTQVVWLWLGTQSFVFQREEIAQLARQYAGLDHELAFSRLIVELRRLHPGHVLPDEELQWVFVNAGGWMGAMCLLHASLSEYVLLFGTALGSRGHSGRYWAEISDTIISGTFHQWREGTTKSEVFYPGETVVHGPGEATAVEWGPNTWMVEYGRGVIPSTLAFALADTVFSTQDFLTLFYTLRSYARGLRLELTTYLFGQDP
Chain of Human α2δ-1 subunit of Cav2.2 calcium channel (P54289 25-1103): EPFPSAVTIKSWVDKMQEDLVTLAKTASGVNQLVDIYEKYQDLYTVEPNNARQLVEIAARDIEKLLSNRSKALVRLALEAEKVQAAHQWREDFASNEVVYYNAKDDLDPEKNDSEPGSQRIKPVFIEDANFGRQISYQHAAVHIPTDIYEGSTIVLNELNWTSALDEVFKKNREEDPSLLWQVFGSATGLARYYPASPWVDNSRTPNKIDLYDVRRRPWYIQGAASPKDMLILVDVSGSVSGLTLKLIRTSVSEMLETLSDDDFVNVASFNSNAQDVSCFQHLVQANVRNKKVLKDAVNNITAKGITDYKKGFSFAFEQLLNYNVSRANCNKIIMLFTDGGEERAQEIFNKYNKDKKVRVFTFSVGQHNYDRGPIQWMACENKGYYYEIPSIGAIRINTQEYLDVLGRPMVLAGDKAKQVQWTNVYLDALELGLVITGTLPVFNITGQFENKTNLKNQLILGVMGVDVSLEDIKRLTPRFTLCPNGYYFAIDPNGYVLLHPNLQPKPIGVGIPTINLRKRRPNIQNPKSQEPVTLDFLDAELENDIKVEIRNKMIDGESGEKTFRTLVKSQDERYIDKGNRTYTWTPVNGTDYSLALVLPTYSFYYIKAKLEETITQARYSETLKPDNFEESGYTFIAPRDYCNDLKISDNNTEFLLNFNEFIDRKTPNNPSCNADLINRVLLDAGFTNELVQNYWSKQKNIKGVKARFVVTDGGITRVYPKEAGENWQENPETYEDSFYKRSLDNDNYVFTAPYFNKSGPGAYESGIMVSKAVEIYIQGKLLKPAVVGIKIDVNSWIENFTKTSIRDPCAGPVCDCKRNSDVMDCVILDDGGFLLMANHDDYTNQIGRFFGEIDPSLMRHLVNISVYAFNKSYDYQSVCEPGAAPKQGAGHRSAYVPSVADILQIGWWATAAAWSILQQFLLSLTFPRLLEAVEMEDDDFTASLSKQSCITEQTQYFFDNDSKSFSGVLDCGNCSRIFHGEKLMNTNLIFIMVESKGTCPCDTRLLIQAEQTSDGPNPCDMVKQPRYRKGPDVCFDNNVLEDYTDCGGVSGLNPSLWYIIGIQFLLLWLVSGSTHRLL

Regarding `COCC1CCN(Cc2c(C)nn3c(C4CCCN(Cc5ccc(Cl)cc5)C4)ccnc23)CC1` (stereo not shown) [Example 170, 7-(1-(4-Chlorobenzyl)piperidin-3-yl)-3-((4-(methoxymethyl)piperidin-1-yl)methyl)-2-methylpyrazolo[1,5-a]pyrimidine], the Ki in test [1] was below 0.5 µM; on Human σ1 receptor, below 500 nM.
`Cc1nn2c(C3CCCN(Cc4ccc(Cl)cc4)C3)ccnc2c1CN1CCC(C(N)=O)CC1` (stereo not shown) [Example 171, 1-((7-(1-(4-Chlorobenzyl)piperidin-3-yl)-2-methylpyrazolo[1,5-a]pyrimidin-3-yl)methyl)piperidine-4-carboxamide]: the Ki is 0.5 to 5 µM in test [1] and below 500 nM at Human σ1 receptor.
The corresponding values for `Cc1nn2c(C3CCCN(Cc4ccc(Cl)cc4)C3)ccnc2c1CN1CCC(C#N)CC1` (stereo not shown) [Example 172, 1-((7-(1-(4-Chlorobenzyl)piperidin-3-yl)-2-methylpyrazolo[1,5-a]pyrimidin-3-yl)methyl)piperidine-4-carbonitrile] are above 5 µM and below 500 nM.
The corresponding values for `Cc1nn2c(C3CCCN(Cc4ccc(Cl)cc4)C3)ccnc2c1CN1CCNC(=O)C1` (stereo not shown) [Example 173] are above 5 µM and above 1000 nM.
Consider `CC(=O)N1CCN(Cc2c(C)nn3c(C4CCCN(Cc5ccc(Cl)cc5)C4)ccnc23)CC1` (stereo not shown) [Example 174, 1-(4-((7-(1-(4-Chlorobenzyl)piperidin-3-yl)-2-methylpyrazolo[1,5-a]pyrimidin-3-yl)methyl)piperazin-1-yl)ethan-1-one], for which the Ki in test [1] was 0.5 to 5 µM; on Human σ1 receptor, above 1000 nM.
For the compound `Cc1nn2c(C3CCCN(Cc4ccc(Cl)cc4)C3)ccnc2c1CN1CCN(S(C)(=O)=O)CC1` (stereo not shown) [Example 175, 7-(1-(4-Chlorobenzyl)piperidin-3-yl)-2-methyl-3-((4-(methylsulfonyl)piperazin-1-yl)methyl)pyrazolo[1,5-a]pyrimidine], the Ki in test [1] is above 5 µM; at Human σ1 receptor it was above 1000 nM.
Consider `Cc1nn2c(C3CCCN(Cc4ccc(Cl)cc4)C3)ccnc2c1CNCCCN1CCCC1=O` (stereo not shown) [Example 176, 1-(3-(((7-(1-(4-Chlorobenzyl)piperidin-3-yl)-2-methylpyrazolo[1,5-a]pyrimidin-3-yl)methyl)amino)propyl)pyrrolidin-2-one], for which the Ki in test [1] is 0.5 to 5 µM; on Human σ1 receptor it was above 1000 nM.
Regarding `Cc1nn2c(C3CCCN(Cc4ccc(Cl)cc4)C3)ccnc2c1CNCC1(F)CCOCC1` (stereo not shown) [Example 177, 1-(7-(1-(4-Chlorobenzyl)piperidin-3-yl)-2-methylpyrazolo[1,5-a]pyrimidin-3-yl)-N-((4-fluorotetrahydro-2H-pyran-4-yl)methyl)methanamine], the values for the Ki (in test [1]; at Human σ1 receptor) were 0.5 to 5 µM and below 500 nM, respectively.
Turning to `Cc1nn2c(C3CCCN(Cc4ccc(Cl)cc4)C3)ccnc2c1CNCCC1CCOCC1` (stereo not shown) [Example 178, N-((7-(1-(4-Chlorobenzyl)piperidin-3-yl)-2-methylpyrazolo[1,5-a]pyrimidin-3-yl)methyl)-2-(tetrahydro-2H-pyran-4-yl)ethan-1-amine], the Ki was 0.5 to 5 µM in test [1] and below 500 nM on Human σ1 receptor.
Turning to `Cc1nn2c(C3CCCN(Cc4ccc(Cl)cc4)C3)ccnc2c1CNCC1CCN(S(C)(=O)=O)CC1` (stereo not shown) [Example 179, 1-(7-(1-(4-Chlorobenzyl)piperidin-3-yl)-2-methylpyrazolo[1,5-a]pyrimidin-3-yl)-N-((1-(methylsulfonyl)piperidin-4-yl)methyl)methanamine], the Ki in test [1] fell in the range of 0.5 to 5 µM; on Human σ1 receptor, 500 to 1000 nM.
Regarding `CC(=O)N1CCC(CNCc2c(C)nn3c(C4CCCN(Cc5ccccc5)C4)ccnc23)CC1` (stereo not shown) [Example 180, 1-(4-((((7-(1-Benzylpiperidin-3-yl)-2-methylpyrazolo[1,5-a]pyrimidin-3-yl)methyl)amino)methyl)piperidin-1-yl)ethan-1-one], the Ki in test [1] is 0.5 to 5 µM; on Human σ1 receptor, below 500 nM.
Consider `Cc1nn2c(C3CCCN(Cc4cccc(F)c4)C3)ccnc2c1CNCC1CCOCC1` (stereo not shown) [Example 181, 1-(7-(1-(3-Fluorobenzyl)piperidin-3-yl)-2-methylpyrazolo[1,5-a]pyrimidin-3-yl)-N-((tetrahydro-2H-pyran-4-yl)methyl)methanamine], for which the Ki in test [1] was 0.5 to 5 µM; on Human σ1 receptor it was below 500 nM.
On the same counts, the results for `Cc1nn2c(C3CCCN(Cc4ccc(F)c(F)c4)C3)ccnc2c1CNCC1CCOCC1` (stereo not shown) [Example 182, 1-(7-(1-(3,4-Difluorobenzyl)piperidin-3-yl)-2-methylpyrazolo[1,5-a]pyrimidin-3-yl)-N-((tetrahydro-2H-pyran-4-yl)methyl)methanamine] are below 0.5 µM and below 500 nM.
Consider `Cc1nn2c(C3CCCN(Cc4ccc(C#N)cc4)C3)ccnc2c1CNCC1CCOCC1` (stereo not shown) [Example 183, 4-((3-(2-Methyl-3-((((tetrahydro-2H-pyran-4-yl)methyl)amino)methyl)pyrazolo[1,5-a]pyrimidin-7-yl)piperidin-1-yl)methyl)benzonitrile], for which the Ki is above 5 µM in test [1] and below 500 nM on Human σ1 receptor.
On the same counts, the results for `Cc1nn2c(C3CCCN(Cc4ccc(C(F)(F)F)nc4)C3)ccnc2c1CNCC1CCOCC1` (stereo not shown) [Example 184, 1-(2-Methyl-7-(1-((6-(trifluoromethyl)pyridin-3-yl)methyl)piperidin-3-yl)pyrazolo[1,5-a]pyrimidin-3-yl)-N-((tetrahydro-2H-pyran-4-yl)methyl)methanamine] are above 5 µM and below 500 nM.
As for `Cc1nn2c(C3CCCN(CC4CCOCC4)C3)ccnc2c1CNCC1CCOCC1` (stereo not shown) [Example 185, 1-(2-Methyl-7-(1-((tetrahydro-2H-pyran-4-yl)methyl)piperidin-3-yl)pyrazolo[1,5-a]pyrimidin-3-yl)-N-((tetrahydro-2H-pyran-4-yl)methyl)methanamine], the Ki in test [1] is above 5 µM; at Human σ1 receptor it was above 1000 nM.
In the case of `Cc1nn2c(C3CCCN(Cc4ccc(Cl)cc4Cl)C3)ccnc2c1CN(C)C` (stereo not shown) [Example 186, 1-(7-(1-(2,4-Dichlorobenzyl)piperidin-3-yl)-2-methylpyrazolo[1,5-a]pyrimidin-3-yl)-N,N-dimethylmethanamine], the Ki is above 5 µM in test [1] and below 500 nM on Human σ1 receptor.
Take `CCc1nn2c(C3CCCN(Cc4ccc(Cl)cc4)C3)ccnc2c1CNCC1CCOCC1` (stereo not shown) [Example 187, 1-(7-(1-(4-Chlorobenzyl)piperidin-3-yl)-2-ethylpyrazolo[1,5-a]pyrimidin-3-yl)-N-((tetrahydro-2H-pyran-4-yl)methyl)methanamine]: the results for the Ki (in test [1]; at Human σ1 receptor) were below 0.5 µM and below 500 nM, respectively.
Turning to `Clc1ccc(CN2CCCC(c3ccnc4c(CNCC5CCOCC5)c(C5CC5)nn34)C2)cc1` (stereo not shown) [Example 188, 1-(7-(1-(4-Chlorobenzyl)piperidin-3-yl)-2-cyclopropylpyrazolo[1,5-a]pyrimidin-3-yl)-N-((tetrahydro-2H-pyran-4-yl)methyl)methanamine], the Ki is below 0.5 µM in test [1] and below 500 nM on Human σ1 receptor.
On the same counts, the results for `COc1nn2c(C3CCCN(Cc4ccc(Cl)cc4)C3)ccnc2c1CNCC1CCOCC1` (stereo not shown) [Example 189, 1-(7-(1-(4-Chlorobenzyl)piperidin-3-yl)-2-methoxypyrazolo[1,5-a]pyrimidin-3-yl)-N-((tetrahydro-2H-pyran-4-yl)methyl)methanamine] are below 0.5 µM and below 500 nM.
On the same counts, the results for `Clc1ccc(CN2CCCC(c3ccnc4c(CNCC5CCOCC5)c(Cl)nn34)C2)cc1` (stereo not shown) [Example 190, 1-(2-Chloro-7-(1-(4-chlorobenzyl)piperidin-3-yl)pyrazolo[1,5-a]pyrimidin-3-yl)-N-((tetrahydro-2H-pyran-4-yl)methyl)methanamine] are below 0.5 µM and below 500 nM.
The corresponding values for `CC(C)CCN1CCCC(c2ccnc3c(CNCC4CCOCC4)c(Cl)nn23)C1` (stereo not shown) [Example 191, 1-(2-Chloro-7-(1-isopentylpiperidin-3-yl)pyrazolo[1,5-a]pyrimidin-3-yl)-N-((tetrahydro-2H-pyran-4-yl)methyl)methanamine] are above 5 µM and below 500 nM.
On to `CC(=O)N1CCC(CNCc2c(Cl)nn3c(C4CCCN(CCC(C)C)C4)ccnc23)CC1` (stereo not shown) [Example 192, 1-(4-((((2-chloro-7-(1-isopentylpiperidin-3-yl)pyrazolo[1,5-a]pyrimidin-3-yl)methyl)amino)methyl)piperidin-1-yl)ethan-1-one], for which the Ki in test [1] is above 5 µM; at Human σ1 receptor it was below 500 nM.
On to `CC(=O)N1CCC(CNCc2c(C)nn3c([C@H]4CCCN(Cc5ccc(Cl)cc5)C4)ccnc23)CC1` [Example 193, (S)-1-(4-((((7-(1-(4-Chlorobenzyl)piperidin-3-yl)-2-methylpyrazolo[1,5-a]pyrimidin-3-yl)methyl)amino)methyl)piperidin-1-yl)ethan-1-one], for which the Ki was below 0.5 µM in test [1] and below 500 nM on Human σ1 receptor.
As for `CC(=O)N1CCC(CNCc2c(C)nn3c([C@@H]4CCCN(Cc5ccc(Cl)cc5)C4)ccnc23)CC1` [Example 194, (R)-1-(4-((((7-(1-(4-chlorobenzyl)piperidin-3-yl)-2-methylpyrazolo[1,5-a]pyrimidin-3-yl)methyl)amino)methyl)piperidin-1-yl)ethan-1-one], the Ki in test [1] is 0.5 to 5 µM; on Human σ1 receptor, below 500 nM.
For the compound `Cc1nn2c([C@@H]3CCCN(Cc4ccc(Cl)cc4)C3)ccnc2c1CN[C@H](C)c1ccccc1` [Example 195, (R)—N-((7-((R)-1-(4-Chlorobenzyl)piperidin-3-yl)-2-methylpyrazolo[1,5-a]pyrimidin-3-yl)methyl)-1-phenylethan-1-amine], the Ki in test [1] was 0.5 to 5 µM; at Human σ1 receptor, below 500 nM.
